Experimental data reported in patent publication US7998935B2, “Quinaldine based semisquaraines and squaraine dyes, process for preparation thereof and use thereof” (Council of Scientific and Industrial Research, priority 2006, dated 2011).

How the values were obtained:
[1] = Absorption and fluorescence emission spectra (photophysical properties); format: physicochemical
Description: Semisquaraine of the general formula 1 in which a quinaldine moiety is linked to the squaric acid through methylene bridge have absorption around 480 nm with high molar extinction coefficient (4.0×10^4 M^−1 cm^−1) which depends on the substitution on the quanaldine unit. […] The absorption and fluorescence emission spectra of representative semisquaraine of the general formula 1 where X=OH, Y=H, Z=H, R^2=CH3 are shown in FIG. 1.
Similar to the semisquaraines the absorption spectra of these dyes were also dependent on the substitution on the quinaldine moiety. […] The presence of electron withdrawing groups in the quinaldine ring shifts the absorption maxima towards the blue region. […] The absorption and fluorescence emission spectra of representative symmetrical squaraine dye of the general formula 2, where X=I, Y=H, R^2=CH3 are shown in FIG. 2.
The absorption and fluorescence emission spectra of representative unsymmetrical squaraine dyes of the general formula 3, where X=C6H11O6, Y=H, Q=I, Z=H, R^2=CH3, are shown in FIG. 4.

[2] = test system: L1210 mouse lymphoma cells; assay: Photocytotoxicity of squaraine dyes with and without visible light (cell survival / proliferation); format: cell-based; conditions: for toxicity in the dark: absence of light; for photocytotoxicity (% of cell survival with increasing concentration of dye): under illumination (visible light, 1000 W halogen lamp), on ice
Experimental: FIG. 5: Photocytotoxicity of the squaraine dyes of general formula 2, where X=I, Y=H, R^2=CH3, and general formula 3, where X=OH, Y=H, Q=I, Z=H, R^2=CH3 in L1210 mouse lymphoma cells. Data gives the number of cell (% of controls) counted after 48 h after the treatment for 22.5 min at 0° C. with various concentrations of the squaraine dyes under dark and under irradiation. Data points represent the mean of three independent experiments (±SD).
FIG. 6: Photocytotoxicity of the sugar linked and cholesterol-squaraine dyes of general formula 3, where X=C6H11O6, Y=H, Q=I, Z=H, R^2=CH3 and where X=C27H43O3, Y=H, Q=I, Z=H, R^2=CH3 L1210 mouse lymphoma cells. Data gives the number of cell (% of controls) counted after 48 h after the treatment for 22.5 min at 0° C. with various concentrations of the squaraine derivatives under dark and under irradiation. Data points represent the mean of three independent experiments (±SD).
In order to analyze the cytotoxicity of the squaraine dyes of the general formula 2 wherein X=I, Y=H, R^2=CH3 and 3 wherein X=OH, Y=H, Q=I, Z=H, R^2=CH3, with and without visible light, the cloning efficiencies of L1210 mouse lymphoma cells exposed to various concentrations of the dyes were determined. The light exposure was carried out from a 1000 W halogen lamp at a distance of 33 cm in Ca^2+ and Mg^2+ free PBS (140 mM NaCl, 3 mM KCl, 8 mM […], pH 7.4) on ice (10^6 cells/mL). Illumination for 10 min corresponds to 225 kJ/m^2 between 400 and 800 nm. The cells were pelleted by centrifugation and resuspended in PBSG three times. The cells were resuspended at 3×10^4 cells/mL in fresh medium at 37° C. and the numbers of cells were counted repeatedly for 60 h. From the exponential part of the growth curves (between 24 and 60 h) the number of proliferating cells at the time of resuspension was calculated by extrapolation. Cell survival was defined as the ratio between proliferating and resuspended cells. Results obtained with representative quinaldine based squaraine dyes of the general formula 2 wherein X=I, Y=H, R^2=CH3 and 3 wherein X=OH, Y=H, Q=I, Z=H, are shown in FIG. 5.
The cytotoxicity induced by squaraine dyes of the general formula 3 wherein X=C6H11O6, Y=H, Q=I, Z=H, R^2=CH3 and X=C27H43O3, Y=H, Q=I, Z=H, R^2=CH3 in mouse lymphoma cells L1210 with and without visible light, was carried out as explained in EXAMPLE 8. Results obtained with representative quinaldine based squaraine dyes of the general formula 3 wherein X=C6H11O6, Y=H, Q=I, Z=H, R^2=CH3 and X=C27H43O3, Y=H, Q=I, Z=H, R^2=CH3 are shown in FIG. 6.

mammalian AS52 cells = assay: Cytotoxicity in the presence and absence of light; format: cell-based
Description: In the present invention, we have investigated the cytotoxicity of these dyes in mammalian AS52 cells both in the presence and absence of light.

Which absorption maxima ([1]; in methanol) does the source give for `CCCCOc1c(C=C2C=Cc3cc(O)ccc3N2C)c(=O)c1=O` here?
The absorption maxima was 477 nm.

With `CN1/C(=C/C2=C([O-])C(=C\c3ccc4cc(O[C@@H]5O[C@H](CO)[C@@H](O)[C@H](O)[C@H]5O)ccc4[n+]3C)/C2=O)C=Cc2cc(I)ccc21` as the compound, how does the “toxicity in the dark” value [2] read?
Its value is “very less toxicity in the absence of light”.

And the “photocytotoxicity (% of cell survival with increasing concentration of dye)” value [2]?
Its value is “dose dependent photocytotoxicity”.

What about the “cytotoxicity compared with diiodo squaraine dye of general formula 2 (X=I)” value (mammalian AS52 cells) of the same compound?
Its value is “more cytotoxic”.

And the “cytotoxicity compared with hydroxyl-substituted squaraine dye of general formula 3 (X=OH)” value (mammalian AS52 cells)?
Its value is “significantly high”.

Which “toxicity in the dark” value [2] does the source give for `CN1/C(=C/C2=C([O-])C(=C\c3ccc4cc(O)ccc4[n+]3C)/C2=O)C=Cc2cc(I)ccc21` here?
Its value is “less toxic in the dark”.

What about the “photocytotoxicity (% of cell survival with increasing concentration of dye)” value [2] of the same compound?
Its value is “dose dependent photocytotoxicity”.

For `CN1/C(=C/C2=C([O-])C(=C\c3ccc4cc(I)ccc4[n+]3C)/C2=O)C=Cc2cc(I)ccc21`, which “toxicity in the dark” value [2] is on record?
The value was “less toxic in the dark”.

And the “photocytotoxicity (% of cell survival with increasing concentration of dye)” value [2]?
Its value is “dose dependent photocytotoxicity”.

And the absorption maxima ([1]; in DMSO)?
Its absorption maxima is “around 750 nm”.

And the emission maxima ([1]; in dimethyl sulfoxide (DMSO))?
Its emission maxima is “around 772 nm”.

For `CCCCOc1c(C=C2C=Cc3cc(OCC)ccc3N2C)c(=O)c1=O`, which absorption maxima ([1]; in methanol) is on record?
The absorption maxima was 478 nm.
